Source: PMC8986778, “Citrullination of glucokinase is linked to autoimmune diabetes” (Nature Communications, 2022)

Key:
[1] = system: glucokinase; conditions: randomized, double-blind and placebo-controlled study; cited from earlier work
Text: As mentioned above, ATP-dependent GK converts glucose to glucose-6-phosphate, the critical step in glucose metabolism. Alternative splicing of the GK gene results in three tissue-specific isoforms, isoform 1 (pancreas) and isoforms 2 and 3 (liver). The only difference among three GK isoforms is in the amino acid sequence of exon 1 in the first fifteen amino acids of human pancreatic glucokinase. Unlike other hexokinases, GK is not regulated by feedback inhibition by glucose-6-phosphate. Therefore, GK can constitutively trigger insulin secretion in pancreatic β-cells under high glucose cond ...

[2] = system: INS-1E cells; experiment: Insulin secretion assay; assay type: cell-based, rat
Description: (§1) For insulin secretion assay, the INS-1E cells, a gift from Prof. Wollheim (CMU, Geneva, Switzerland)[53], were seeded on 6 well plate and cultured with recombinant mouse IFNγ (100 units/mL; R&D Systems) and recombinant human IL-1β (5 units/mL; R&D Systems) in the presence or absence of PAD2/PAD4 inhibitor (5 µM YW3-56; Cayman) for 48 hrs. Cells were washed and starved for 1 hr in low-glucose KREBS buffer (138 mM NaCl, 4.7 mM KCl, 1 mM CaCl2, 1.18 mM KH2PO4, 1.18 mM MgSO4, 5 mM NaHCO3, 25 mM Hepes (pH7.4), 0.1% BSA and 2.5 mM glucose). Assay buffer was then replaced with KREBS buffer containing either varying glucose concentration (2.5, 5, 9 and 16.7 mM), 10 mM sodium pyruvate or 30 mM KCl. After another 1 hr incubation, supernatants were collected and assayed for insulin by using Rat High Range Insulin ELISA kit (ALPCP) according to manufacturer’s protocol and analyzed using Microsoft excel Software. All experiments were performed using INS-1E cells between the 61st and 65th passage.

[3] = system: INS-1E cells; experiment: Protein citrullination immunoblot (anti-modified citrulline); assay type: cell-based, rat; conditions: IFNγ 100U/ml plus IL-1β 5U/ml, 5 µM YW3-56, 48 hrs
Text: Presence of citrullinated protein was detected by using anti-citrulline (Abcam, ab6464) for immunohistochemistry as described elsewhere, by using anti-peptidyl-citrulline, clone F95 (Millipore, MABN328) for flow cytometry and confocal microscopy and by using anti-modified citrulline detection kit, clone C4 (Millipore, 17-347B) for immunoblot according to manufacturer’s protocol. The specificity and sensitivity of the above commercial antibodies for the detection of protein citrullination were described previously[47],[48] and in our recent reports[9],[51],[52].
as §1, with “Assay buffer was then replaced with KREBS buffer containing either varying glucose concentration (2.5, 5, 9 and 16.7 mM), 10 mM sodium pyruvate or 30 mM KCl.” left out, “All experiments were performed using INS-1E cells between the 61st and 65th passage.” left out

[4] = system: PAD4; conditions: pan-PAD inhibitor; no reference printed (compound from Cayman); cited from earlier work
Description: Proinflammatory cytokines are known to attenuate glucose stimulated insulin secretion (GSIS), mediated by glucokinase, as studied elsewhere[29]–[31]. We utilized a subclonal cell line from the parenteral INS-1 cells, INS-1E, to examine GSIS and how citrullination may alter the glucose sensing/insulin secreting metabolic pathway. We also utilized YW3-56, a pan-PAD inhibitor (IC50: […] and 1–5 µM for PAD2 and PAD4, respectively), in studies of GSIS in INS-1E cells as a means of blocking protein citrullination. First, we confirmed by immunoblot detection of citrulline that IFNγ+ IL-1β cytoki ...

Compound: CCCO[C@H]1CC[C@H](N(C(=O)Nc2ncc(SCC(=O)O)s2)C2CCCCC2)CC1 [TTP399]
- clinical effect in patients with T1D [1]: lower HbA1C and reduce hypoglycemia without increasing the risk of ketosis

Compound: YW3-56
- citrullination levels or GSIS, inhibitor alone ([2]; 5 µM YW3-56 without cytokines, 48 hrs): did not affect
- cytokine-mediated suppression of insulin secretion upon pyruvate stimulation ([2]; 10 mM sodium pyruvate, 5 µM YW3-56 with cytokines 48 h): able to correct
- IFNγ + IL-1β suppressed GSIS ([2]; 16.7 mM glucose, YW3-56 cocultured with cytokines for 48 h): partially correct
- insulin secretion to depolarization with KCL ([2]; 30 mM KCl, cytokines in the presence or absence of YW3-56): not affected
- insulin secretion ([2]; YW3-56 alone (no cytokine), glucose 2.5 (head prints nM), replicate 1): 20.6698
- insulin secretion ([2]; YW3-56 alone, KCl, replicate 1): 216.859
- insulin secretion ([2]; YW3-56 alone, KCl, replicate 2): 173.302
- insulin secretion ([2]; YW3-56 alone, KCl, replicate 3): 216.475
- insulin secretion ([2]; YW3-56 alone, glucose 2.5 (head prints nM), replicate 2): 24.1975
- insulin secretion ([2]; YW3-56 alone, glucose 2.5 (head prints nM), replicate 3): 21.4049
- insulin secretion ([2]; YW3-56 alone, glucose 5 (head prints nM), replicate 1): 75.1459
- insulin secretion ([2]; YW3-56 alone, glucose 5 (head prints nM), replicate 2): 84.4819
- insulin secretion ([2]; YW3-56 alone, glucose 5 (head prints nM), replicate 3): 61.4806
- insulin secretion ([2]; YW3-56 alone, glucose 16.7 (head prints nM), replicate 1): 227.056
- insulin secretion ([2]; YW3-56 alone, glucose 16.7 (head prints nM), replicate 2): 273.99
- insulin secretion ([2]; YW3-56 alone, glucose 16.7 (head prints nM), replicate 3): 236.558
- insulin secretion ([2]; YW3-56 alone, pyruvate, replicate 1): 292.452
- insulin secretion ([2]; YW3-56 alone, pyruvate, replicate 2): 273.99
- insulin secretion ([2]; YW3-56 alone, pyruvate, replicate 3): 273.99
- insulin secretion ([2]; cytokine (IFNγ + IL-1β) + YW3-56 5 µM 48 hrs, 1 hr glucose 2.5 (head prints nM), replicate 1): 42.5356
- insulin secretion ([2]; cytokine + YW3-56 48 hrs, KCl, replicate 1): 91.8746
- insulin secretion ([2]; cytokine + YW3-56 48 hrs, KCl, replicate 2): 82.0356
- insulin secretion ([2]; cytokine + YW3-56 48 hrs, KCl, replicate 3): 59.5376
- insulin secretion ([2]; cytokine + YW3-56 48 hrs, glucose 2.5 (head prints nM), replicate 2): 26.9388
- insulin secretion ([2]; cytokine + YW3-56 48 hrs, glucose 2.5 (head prints nM), replicate 3): 26.5034
- insulin secretion ([2]; cytokine + YW3-56 48 hrs, glucose 5 (head prints nM), replicate 1): 38.7513
- insulin secretion ([2]; cytokine + YW3-56 48 hrs, glucose 5 (head prints nM), replicate 2): 47.2935
- insulin secretion ([2]; cytokine + YW3-56 48 hrs, glucose 5 (head prints nM), replicate 3): 37.2188
- insulin secretion ([2]; cytokine + YW3-56 48 hrs, glucose 16.7 (head prints nM), replicate 1): 95.9987
- insulin secretion ([2]; cytokine + YW3-56 48 hrs, glucose 16.7 (head prints nM), replicate 2): 101.342
- insulin secretion ([2]; cytokine + YW3-56 48 hrs, glucose 16.7 (head prints nM), replicate 3): 93.7876
- insulin secretion ([2]; cytokine + YW3-56 48 hrs, pyruvate, replicate 1): 78.6578
- insulin secretion ([2]; cytokine + YW3-56 48 hrs, pyruvate, replicate 2): 90.7306
- insulin secretion ([2]; cytokine + YW3-56 48 hrs, pyruvate, replicate 3): 140.964
- IFNγ+ IL-1β cytokine-induced citrullination levels [3]: reduced
- IC50 [4]: 1000 to 5000 nM
